Earlier results on four compounds are cited in patent publication US10640746B2, “Synthetic methylotrophs” (UNIVERSITY OF DELAWARE, priority 2016, dated 2020).

What is called Km is the substrate concentration at which the rate is half of its maximum. In general, Vmax refers to the top rate of the reaction or transport when substrate is in excess.

Details in all cases: in vitro
Data set [1] concerns Corynebacterium glutamicum R (Cgl R) alcohol dehydrogenase A (Cgl AdhA, CgAdhA; GenBank BAF55711.1; SEQ ID NO: 1).
In data set [2] the test system is Bacillus stearothermophilus 2334 (Bst) methanol dehydrogenase (Bst Mdh, BsMdh).
In data set [3] the test system is Bacillus methanolicus MGA3 (Bme) methanol dehydrogenase 3 (Bme Mdh3, BmMdh3).

For the compound `CCO` [EtOH, ethanol], the Km is 6.8 mM in data set [1] and 0.08 mM in data set [2]. The Vmax in data set [1] was 7.8 µmol/min/mg; in data set [3], 2 µmol/min/mg.
Regarding `CO` [MeOH, methanol], the Km is 3 mM in data set [1] and 20 mM in data set [2]. Moreover, the Vmax was 0.7 µmol/min/mg in data set [1], 2.1 µmol/min/mg in data set [2] and 0.07 µmol/min/mg in data set [3].
Turning to `CCCCO` [n-BuOH, n-butanol], the Km in data set [1] is 35 mM; in data set [2] it was 0.01 mM. The Vmax in data set [1] is 8.9 µmol/min/mg; in data set [3], 2.3 µmol/min/mg.
As for `CCCO` [n-PrOH, propanol], the Km in data set [1] was 7.5 mM; in data set [2] it was 0.02 mM. Further, the Vmax in data set [1] is 7.7 µmol/min/mg; in data set [3], 3.5 µmol/min/mg.
